Assays:
Format in all cases: cell-based, mouse
[1] = system: presynaptic NMDA receptors; assay: mEPSC whole cell patch clamp recordings in entorhinal cortex slices; conditions: TTX 1 µM, PTX 100 µM, MK-801 10 µM in pipette; n = 8
[2] = system: p46-JNK; assay: p46-JNK phosphorylation, western blot of cortical synaptosomes; conditions: NMDA 100 µM + glycine 1 µM 10 min or KCl 8 mM 90 s (Fig. 1A); n = 6
[3] = system: STX1a (Ser14 p-STX1a); assay: STX1a Ser14 phosphorylation, western blot of cortical synaptosomes; conditions: mean ± s.e.m.; for Ser14 p-STX1a levels vs. control = 1, stimulus alone: NMDA 100 µM + glycine 1 µM 10 min or KCl 8 mM 90 s (Fig. 1B), n = 6
[4] = system: p54-JNK; assay: p54-JNK phosphorylation, western blot of cortical synaptosomes; conditions: mean ± s.e.m.; for p54-JNK phosphorylation vs. control, stimulus alone: NMDA 100 µM + glycine 1 µM 10 min or KCl 8 mM 90 s (Fig. 1A), n = 6
[5] = system: NMDA-evoked exocytosis, cortical synaptosomes; assay: Synaptic vesicle release, FM1-43 destaining in cortical synaptosomes; conditions: NMDA 100 µM + glycine 1 µM, 0 µM JGRi1; mean ± s.e.m., n = 5
[6] = system: SNARE complex; assay: SNARE complex formation assay in cortical synaptosomes; conditions: NMDA 100 µM + glycine 1 µM 10 min alone; mean ± s.e.m., n = 4

Structure (SMILES) | mEPSC amplitude, vehicle vs. D-AP5 [1] | mEPSC inter-event interval (iei), vehicle vs. D-AP5 [1] | p46-JNK phosphorylation, stimulus alone [2] | Ser14 p-STX1a levels vs. control = 1, stimulus alone [3] | p54-JNK phosphorylation vs. control, stimulus alone [4] | NMDA-induced release of fluorescent dye FM1-43, stimulus alone [5] | STX1a phosphorylation vs. control = 1, stimulus alone ([3]; NMDA 100 µM + glycine 1 µM 10 min alone (Fig. 4B), n = 7) | p54-JNK phosphorylation vs. control = 1, stimulus alone ([4]; NMDA 100 µM + glycine 1 µM 10 min alone (Fig. 4A), n = 7) | SNARE complex formation vs. control = 1, stimulus alone [6]
NC(CCCP(=O)(O)O)C(=O)O [D-AP5] | unaffected | induced an increase of iei |  |  |  |  |  |  | 
[Cl-].[K+] [KCl] |  |  | unchanged | 1.22 ± 0.11 | not by KCl stimulus |  |  |  | 
CN[C@H](CC(=O)O)C(=O)O [NMDA, N-methyl-D-aspartate] |  |  | unchanged | 1.38 ± 0.07 | 1.58 ± 0.12 | 68% ± 10 | 1.51 ± 0.13 | 1.54 ± 0.12 | 1.85 ± 0.06

Reference: article PMC6509125, “The selective disruption of presynaptic JNK2/STX1a interaction reduces NMDA receptor-dependent glutamate release” (Scientific Reports, 2019)
